Source: ChEMBL document CHEMBL5223086, “Recent Progress and Clinical Development of Inhibitors that Block MDM4/p53 Protein-Protein Interactions” (J Med Chem, 2021)
Each block holds one compound with its values, some of them ahead of it. Peptide text beside a SMILES is read from it.

Key:
Protein Mdm4 [1] = molecular target: T1, Protein Mdm4 (Homo sapiens, UniProt O15151); experiment: Inhibition of MDM4 assessed as dissociation constant
T1 sequence (O15151 whole entry): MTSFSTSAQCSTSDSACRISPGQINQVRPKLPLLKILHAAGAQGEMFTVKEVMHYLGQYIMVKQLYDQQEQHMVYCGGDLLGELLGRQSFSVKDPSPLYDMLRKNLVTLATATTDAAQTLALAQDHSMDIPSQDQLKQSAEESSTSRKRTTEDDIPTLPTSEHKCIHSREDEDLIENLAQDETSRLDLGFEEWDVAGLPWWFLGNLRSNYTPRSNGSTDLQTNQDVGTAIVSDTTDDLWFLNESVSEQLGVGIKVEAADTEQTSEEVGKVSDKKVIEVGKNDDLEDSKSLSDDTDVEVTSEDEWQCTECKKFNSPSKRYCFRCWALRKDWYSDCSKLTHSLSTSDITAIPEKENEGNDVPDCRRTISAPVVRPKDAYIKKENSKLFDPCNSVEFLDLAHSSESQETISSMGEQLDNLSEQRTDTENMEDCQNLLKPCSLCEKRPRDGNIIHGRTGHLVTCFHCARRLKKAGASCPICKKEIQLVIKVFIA

Protein Mdm4 [2] = molecular target: T1, Protein Mdm4; experiment: Binding affinity to human MDM4 assessed as inhibition constant
Protein Mdm4 [3] = molecular target: T1, Protein Mdm4; experiment: Inhibition of human MDM4 by TR-FRET assay
[4] = molecular target: T2, Tumour suppressor protein p53/Mdm4 (Homo sapiens, UniProt O15151+P04637); experiment: Inhibition of human MDM4/p53 interaction by FP assay; type: protein assay
T2 sequence (P04637 whole entry, one chain of several): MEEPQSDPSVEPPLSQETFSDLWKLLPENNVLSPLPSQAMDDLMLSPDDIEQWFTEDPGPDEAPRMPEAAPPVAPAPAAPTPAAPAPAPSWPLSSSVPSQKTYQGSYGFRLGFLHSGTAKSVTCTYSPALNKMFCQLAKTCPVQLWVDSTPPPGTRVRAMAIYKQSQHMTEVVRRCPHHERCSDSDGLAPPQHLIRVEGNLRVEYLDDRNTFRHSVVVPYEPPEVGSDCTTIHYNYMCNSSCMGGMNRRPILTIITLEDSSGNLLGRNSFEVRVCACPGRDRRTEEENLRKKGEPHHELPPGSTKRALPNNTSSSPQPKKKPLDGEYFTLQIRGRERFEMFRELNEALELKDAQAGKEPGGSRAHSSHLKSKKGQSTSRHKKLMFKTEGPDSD

[5] = molecular target: T2, Tumour suppressor protein p53/Mdm4; experiment: Inhibition of human MDM4/p53 interaction by TR-FRET assay; type: protein assay
[6] = molecular target: T3, E3 ubiquitin-protein ligase Mdm2 (Homo sapiens, UniProt Q00987); experiment: Binding affinity to human MDM2 assessed as dissociation constant
T3 sequence (Q00987 whole entry): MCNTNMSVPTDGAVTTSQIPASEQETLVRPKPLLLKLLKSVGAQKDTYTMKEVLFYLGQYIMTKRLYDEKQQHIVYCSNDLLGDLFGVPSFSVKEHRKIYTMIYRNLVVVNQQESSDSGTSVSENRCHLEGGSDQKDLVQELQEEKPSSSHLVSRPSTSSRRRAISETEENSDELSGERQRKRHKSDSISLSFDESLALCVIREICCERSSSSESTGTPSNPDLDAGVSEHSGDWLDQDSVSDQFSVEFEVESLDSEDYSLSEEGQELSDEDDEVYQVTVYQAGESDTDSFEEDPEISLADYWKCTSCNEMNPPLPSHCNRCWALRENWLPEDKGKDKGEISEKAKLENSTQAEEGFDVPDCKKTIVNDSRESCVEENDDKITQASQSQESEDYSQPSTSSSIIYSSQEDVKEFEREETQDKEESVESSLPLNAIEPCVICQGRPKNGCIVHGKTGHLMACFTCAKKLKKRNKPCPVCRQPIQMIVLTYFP

[7] = molecular target: T2, Tumour suppressor protein p53/Mdm4; experiment: Inhibition of human MDM4/p53 interaction by SPR analysis; type: protein assay
[8] = molecular target: T3, E3 ubiquitin-protein ligase Mdm2; experiment: Inhibition of human MDM2
Protein Mdm4 [9] = molecular target: T1, Protein Mdm4; experiment: Inhibition of human MDM4
Protein Mdm4 [10] = molecular target: T1, Protein Mdm4; experiment: Inhibition of human MDM4 by ELISA assay
MCF7 [11] = experiment: Anticancer activity against human MCF7 cells assessed as cell viability at 30 mg/kg by MTT assay relative to contol; details: MCF7, read-out: TGI
Protein Mdm4 [12] = molecular target: T1, Protein Mdm4; experiment: Inhibition of human his-tagged MDM4 assessed as dissociation constant by ITC assay
[13] = molecular target: T3, E3 ubiquitin-protein ligase Mdm2; experiment: Inhibition of human MDM2 by TR-FRET assay
MCF7 [14] = experiment: Anticancer activity against […] relative to contol; type: functional; details: read-out: TGI

IC50 (Protein Mdm4 [2]): 3000 nM
Compound: COc1ncc(-c2nc3c(n2C(C)C)C(c2ccc(Cl)cc2)N(c2cc(Cl)cn(C)c2=O)C3=O)c(OC)n1 (stereo unspecified)

IC50 (Protein Mdm4 [3]): 17 nM
Compound: C[C@@H](c1cccc(Cl)c1)n1cnc(-c2ccccc2)c1-c1c(C(=O)Nc2cc(C(=O)O)ccc2N2CCC(N3CCCOC3=O)CC2)[nH]c2cc(Cl)ccc12

Ki [4]: 3730 nM
Compound: Cc1cc(Cl)ccc1NCc1ccc(CN(C=O)C(C(=O)NC(C)(C)C)c2c(C(=O)O)[nH]c3cc(Cl)ccc23)cc1 (stereo unspecified)

IC50 (Protein Mdm4 [3]): 145 nM
Compound: C[C@@H](c1cccc(Cl)c1)n1cnc(-c2ccccc2)c1-c1c(C(=O)NCCN2CCN(C3CCCCC3)CC2)[nH]c2cc(Cl)ccc12

IC50 (Protein Mdm4 [10]): 110 nM
Compound: H-ETFEHWWSQLLS-OH

The remaining lines, values behind:

Compound: COc1cc(C(=O)O)ccc1NC(=O)[C@@H]1N[C@@H](CC(C)(C)C)[C@](C#N)(c2ccc(Cl)cc2F)[C@H]1c1cccc(Cl)c1F [IDASANUTLIN]
Kd (Protein Mdm4 [1]): < 100 nM

Compound: COc1ncc(-c2nc3c(n2C(C)C)[C@H](c2ccc(C#N)cc2)N([C@@H](C)c2cccc(Cl)c2)C3=O)c(OC)n1
IC50 [5]: 580 nM

Compound: COc1nc(N(C)C)ncc1-c1nc2c(n1C(C)C)[C@H](c1ccc(C#N)cc1)N(c1cc(Cl)cn(C)c1=O)C2=O
IC50 [5]: 1300 nM

Compound: O=C(CN(Cc1ccc(Cl)cc1)C(=O)c1cc2ccccc2[nH]1)NC1CCCCC1
Ki [6]: 5500 nM

Compound: CC(C)C[C@H](NC(=O)[C@H](CS)NC(=O)[C@H](CCCNC(=N)N)NC(=O)[C@H](Cc1c[nH]c2ccccc12)NC(=O)[C@H](Cc1ccc(O)cc1)NC(=O)[C@H](CS)NC(=O)[C@H](CC(C)C)NC(=O)[C@H](Cc1ccccc1)NC(=O)[C@@H](NC(=O)[C@H](CCC(=O)O)NC(=O)[C@@H]1CCCN1C(=O)[C@H](C)NC(=O)[C@H](CCCCN)NC(=O)[C@H](CS)NC(=O)[C@H](CC(N)=O)NC(=O)[C@@H](N)CS)[C@@H](C)O)C(=O)N[C@@H](CCC(N)=O)C(=O)N[C@@H](Cc1c[nH]cn1)C(N)=O (H-CNCKAPETFLCYWRCLQH-NH2)
IC50 [7]: 11.4 nM

Compound: COOc1cc(/C=C2\C(=O)N(c3ccccc3)N=C2C)cc(Cl)c1OCC(=O)OC
EC50 [8]: 26000 nM
EC50 (Protein Mdm4 [9]): 2300 nM

Compound: CC(=O)N[C@@H](CC(C)C)C(=O)N[C@H](C(=O)N[C@@H](Cc1ccccc1)C(=O)N[C@]1(C)CCCCCC/C=C/CCC[C@@](C)(C(=O)N[C@@H](C)C(=O)N[C@@H](C)C(=O)N[C@@H](C)C(=O)N[C@@H](C)C(=O)N[C@H](C)C(N)=O)NC(=O)[C@H](CC(C)C)NC(=O)[C@H](CCC(N)=O)NC(=O)[C@H](C)NC(=O)[C@H](Cc2c[nH]c3ccccc23)NC(=O)[C@H](Cc2ccc(O)cc2)NC(=O)[C@H](C)NC1=O)[C@@H](C)O
inhibition in vivo at 30 mg/kg (MCF7 [11]): 61%

Compound: CC(C)(C)Oc1cc(C(=O)CC(N)=O)ccc1C1=N[C@@H](c2ccc(C(=O)O)cc2)[C@@H](c2c[nH]c3ccccc23)N1C(=O)N1CCNC(=O)C1
Kd (Protein Mdm4 [12]): 27 nM

Compound: COc1cccc2c(C(=O)N[C@H]3CCN(c4ccc(C)cc4)C3)c[nH]c12
IC50 [13]: > 50000 nM

Compound: CCOc1cc(C(C)(C)C)ccc1C1=N[C@@](C)(c2ccc(Cl)cc2)[C@@](C)(c2ccc(Cl)cc2)N1C(=O)N1CCN(CCCS(C)(=O)=O)CC1 [RO-5045337]
inhibition in vivo (MCF7 [14]): 61%
